Where two headings read alike, the source gives them in different places.
Experiments:
[1] = molecular target: purified human recombinant ATM (ataxia telangiectasia mutated), full length (Homo sapiens (Human), UniProt Q13315); assay: ATM kinase assay - determination of ATM inhibition (IC50 ATM), TR-FRET; type: biochemical
Method in brief: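 Full-length enzyme, expressed in a mammalian cell line, pre-incubated 15 min with inhibitor in 25 mM HEPES pH 8.0, 10 mM Mg(CH3COO)2, 1 mM MnCl2, 0,1% BSA, 0,01% Brij 35, 5 mM DTT. Full-length cmyc-p53 (Sf21-expressed) and ATP then added, 30-35 min at 22° C. EDTA stop; p53 S15 phosphorylation read by TR-FRET antibodies.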

[2] = test system: phosphorylation of CHK2 (phospho-Thr68) in HCT116 cells; assay: Cellular pCHK2 assay: bleomycin-induced phosphorylation of CHK2 (phospho-Thr68), immunofluorescence high-content analysis; type: cell-based, human; conditions: Homo sapiens, HCT-116, 4 h, read-out: IC50 (pCHK2)
Method in brief: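 HCT116 cells in DMEM with 10% FCS, incubated overnight at 37° C, then given compounds (1 nM to 30 μM, 0.5% DMSO) together with 10 μM bleomycin. Phospho-Thr68 CHK2 immunostained and imaged by high-content imager; nuclei with pCHK2 above background counted, cell count from propidium iodide DNA stain.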

mTOR (human) = mTOR (human) (Homo sapiens (Human), UniProt P42345); assay: mTOR (human) kinase assay, [γ-33P-ATP] filter assay; type: biochemical
Method in brief: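 Radiometric filter assay: enzyme in 50 mM HEPES pH 7.5, 1 mM EGTA, 0.01% Tween 20, 3 mM MnCl2, 2 mg/ml substrate with [γ-33P-ATP], started with MgATP. Incubated 40 min at room temperature, stopped with 3% phosphoric acid; incorporation measured on P30 filtermat by scintillation counting.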

PI3K p110α/p85α (human) = PI3K p110α/p85α (human) (Homo sapiens (Human), UniProt P42336); assay: PI3K p110α/p85α (human), non-radioactive assay (HTRF); type: biochemical; conditions: read-out: IC50 (PI3Kalpha)
PI3K p110β/p85α (human) = PI3K p110β/p85α (human) (Homo sapiens (Human), UniProt P42338); assay: PI3K p110β/p85α (human), non-radioactive assay (HTRF); type: biochemical; conditions: read-out: IC50 (PI3Kbeta)
Method in brief: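 Human p110β/p85α incubated with 10 μM phosphatidylinositol 4,5-bisphosphate and MgATP for 30 min at room temperature, stopped with EDTA plus biotinylated PIP3. HTRF detection used a Eu-anti-GST antibody, GST-GRP1 PH domain and streptavidin-APC, with signal taken as 10000×(Em665nm/Em620nm).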

PI3K p110δ/p85α (human) = PI3K p110δ/p85α (human) (Homo sapiens (Human), UniProt O00329); assay: PI3K p110δ/p85α (human), non-radioactive assay (HTRF); type: biochemical; conditions: read-out: IC50 (PI3Kdelta)
PI3K (p120γ) (human) = PI3K (p120γ) (human) (Homo sapiens (Human), UniProt P48736); assay: PI3K (p120γ) (human), non-radioactive assay (HTRF); type: biochemical; conditions: read-out: IC50 (PI3Kgamma)
Method in brief: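 Enzyme was run with 10 μM phosphatidylinositol 4,5-bisphosphate, starting the reaction with MgATP at an unspecified level, for 30 min at room temperature. The stop used EDTA plus biotinylated PIP3, and detection used Eu-anti-GST, GST-GRP1 PH domain and streptavidin-APC. Signal was taken as HTRF = 10000×(Em665nm/Em620nm).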

PI3K (p120γ) (human), sequence (P48736 whole entry, the tested form may be a part): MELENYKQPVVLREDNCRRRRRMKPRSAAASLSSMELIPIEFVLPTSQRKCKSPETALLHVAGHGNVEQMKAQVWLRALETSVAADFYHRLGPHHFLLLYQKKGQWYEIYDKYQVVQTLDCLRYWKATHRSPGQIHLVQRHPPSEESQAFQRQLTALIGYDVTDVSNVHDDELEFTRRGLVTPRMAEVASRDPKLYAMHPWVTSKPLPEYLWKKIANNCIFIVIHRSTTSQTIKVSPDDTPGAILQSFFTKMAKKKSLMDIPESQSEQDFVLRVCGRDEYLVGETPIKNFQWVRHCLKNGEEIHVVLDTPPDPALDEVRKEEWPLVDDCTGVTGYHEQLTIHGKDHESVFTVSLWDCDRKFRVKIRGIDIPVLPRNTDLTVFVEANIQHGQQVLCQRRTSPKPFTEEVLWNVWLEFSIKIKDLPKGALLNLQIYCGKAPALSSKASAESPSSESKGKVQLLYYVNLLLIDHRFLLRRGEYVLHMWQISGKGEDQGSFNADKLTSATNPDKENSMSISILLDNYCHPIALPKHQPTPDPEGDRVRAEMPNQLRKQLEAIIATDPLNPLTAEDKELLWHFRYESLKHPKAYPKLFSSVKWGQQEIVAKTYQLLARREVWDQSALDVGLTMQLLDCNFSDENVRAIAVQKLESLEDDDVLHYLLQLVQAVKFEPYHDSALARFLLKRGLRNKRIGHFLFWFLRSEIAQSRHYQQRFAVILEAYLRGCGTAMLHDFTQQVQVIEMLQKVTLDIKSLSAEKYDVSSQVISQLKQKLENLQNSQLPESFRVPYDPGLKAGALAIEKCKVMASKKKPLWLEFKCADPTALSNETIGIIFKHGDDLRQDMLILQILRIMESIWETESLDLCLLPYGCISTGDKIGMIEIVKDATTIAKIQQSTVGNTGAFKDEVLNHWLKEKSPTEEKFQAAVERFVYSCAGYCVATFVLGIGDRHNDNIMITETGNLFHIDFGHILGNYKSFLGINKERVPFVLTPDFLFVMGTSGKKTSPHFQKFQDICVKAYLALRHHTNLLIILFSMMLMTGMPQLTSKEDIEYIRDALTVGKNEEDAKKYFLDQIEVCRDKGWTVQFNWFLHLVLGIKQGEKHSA
PI3K p110α/p85α (human), sequence (P42336 whole entry): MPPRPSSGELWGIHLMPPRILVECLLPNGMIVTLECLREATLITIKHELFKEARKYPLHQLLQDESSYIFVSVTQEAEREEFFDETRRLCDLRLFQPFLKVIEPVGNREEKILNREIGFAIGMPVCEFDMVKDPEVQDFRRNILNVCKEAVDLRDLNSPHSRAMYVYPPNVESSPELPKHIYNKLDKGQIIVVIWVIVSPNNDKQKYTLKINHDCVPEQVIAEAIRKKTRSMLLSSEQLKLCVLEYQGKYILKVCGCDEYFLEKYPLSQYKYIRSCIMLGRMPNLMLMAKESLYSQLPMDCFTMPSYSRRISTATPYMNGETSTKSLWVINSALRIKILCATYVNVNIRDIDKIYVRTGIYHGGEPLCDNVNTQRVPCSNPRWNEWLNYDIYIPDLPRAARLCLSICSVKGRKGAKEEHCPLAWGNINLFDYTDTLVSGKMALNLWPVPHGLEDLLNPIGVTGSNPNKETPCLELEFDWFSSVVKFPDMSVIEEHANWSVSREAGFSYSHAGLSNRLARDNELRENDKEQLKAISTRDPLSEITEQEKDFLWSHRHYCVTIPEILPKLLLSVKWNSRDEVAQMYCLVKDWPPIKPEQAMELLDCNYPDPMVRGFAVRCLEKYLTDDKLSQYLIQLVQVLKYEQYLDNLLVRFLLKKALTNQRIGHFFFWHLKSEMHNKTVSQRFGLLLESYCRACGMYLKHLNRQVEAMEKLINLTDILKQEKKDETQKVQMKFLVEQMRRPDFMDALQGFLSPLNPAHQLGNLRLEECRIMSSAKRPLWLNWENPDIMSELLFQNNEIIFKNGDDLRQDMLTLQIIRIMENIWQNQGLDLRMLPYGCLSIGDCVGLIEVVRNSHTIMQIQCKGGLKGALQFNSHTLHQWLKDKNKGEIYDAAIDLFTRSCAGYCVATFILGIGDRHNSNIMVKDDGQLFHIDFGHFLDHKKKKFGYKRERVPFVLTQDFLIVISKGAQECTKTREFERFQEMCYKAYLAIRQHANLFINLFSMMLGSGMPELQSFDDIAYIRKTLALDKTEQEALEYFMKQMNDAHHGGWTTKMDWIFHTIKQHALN
PI3K p110α/p85α (human), sequence (P27986 whole entry partner): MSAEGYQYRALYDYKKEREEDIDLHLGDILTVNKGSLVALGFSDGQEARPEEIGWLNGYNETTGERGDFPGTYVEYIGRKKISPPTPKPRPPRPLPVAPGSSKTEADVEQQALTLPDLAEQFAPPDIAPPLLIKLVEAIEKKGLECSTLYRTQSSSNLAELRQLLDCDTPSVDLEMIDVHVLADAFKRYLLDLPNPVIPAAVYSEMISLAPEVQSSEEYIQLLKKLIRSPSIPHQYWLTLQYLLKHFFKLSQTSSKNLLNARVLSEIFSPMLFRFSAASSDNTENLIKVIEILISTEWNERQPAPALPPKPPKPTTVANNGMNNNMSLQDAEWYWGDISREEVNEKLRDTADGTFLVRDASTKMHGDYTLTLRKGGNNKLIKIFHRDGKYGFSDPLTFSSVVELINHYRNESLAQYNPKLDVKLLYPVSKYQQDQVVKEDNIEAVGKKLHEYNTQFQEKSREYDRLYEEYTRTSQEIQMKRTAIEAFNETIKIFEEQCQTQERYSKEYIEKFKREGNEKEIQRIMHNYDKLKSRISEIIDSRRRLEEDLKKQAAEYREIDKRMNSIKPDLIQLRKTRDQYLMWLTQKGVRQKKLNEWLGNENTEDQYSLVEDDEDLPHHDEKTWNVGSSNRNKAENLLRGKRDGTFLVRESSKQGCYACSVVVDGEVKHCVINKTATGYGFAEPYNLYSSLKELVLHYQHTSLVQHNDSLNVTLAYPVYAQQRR
PI3K p110δ/p85α (human), sequence (O00329 whole entry): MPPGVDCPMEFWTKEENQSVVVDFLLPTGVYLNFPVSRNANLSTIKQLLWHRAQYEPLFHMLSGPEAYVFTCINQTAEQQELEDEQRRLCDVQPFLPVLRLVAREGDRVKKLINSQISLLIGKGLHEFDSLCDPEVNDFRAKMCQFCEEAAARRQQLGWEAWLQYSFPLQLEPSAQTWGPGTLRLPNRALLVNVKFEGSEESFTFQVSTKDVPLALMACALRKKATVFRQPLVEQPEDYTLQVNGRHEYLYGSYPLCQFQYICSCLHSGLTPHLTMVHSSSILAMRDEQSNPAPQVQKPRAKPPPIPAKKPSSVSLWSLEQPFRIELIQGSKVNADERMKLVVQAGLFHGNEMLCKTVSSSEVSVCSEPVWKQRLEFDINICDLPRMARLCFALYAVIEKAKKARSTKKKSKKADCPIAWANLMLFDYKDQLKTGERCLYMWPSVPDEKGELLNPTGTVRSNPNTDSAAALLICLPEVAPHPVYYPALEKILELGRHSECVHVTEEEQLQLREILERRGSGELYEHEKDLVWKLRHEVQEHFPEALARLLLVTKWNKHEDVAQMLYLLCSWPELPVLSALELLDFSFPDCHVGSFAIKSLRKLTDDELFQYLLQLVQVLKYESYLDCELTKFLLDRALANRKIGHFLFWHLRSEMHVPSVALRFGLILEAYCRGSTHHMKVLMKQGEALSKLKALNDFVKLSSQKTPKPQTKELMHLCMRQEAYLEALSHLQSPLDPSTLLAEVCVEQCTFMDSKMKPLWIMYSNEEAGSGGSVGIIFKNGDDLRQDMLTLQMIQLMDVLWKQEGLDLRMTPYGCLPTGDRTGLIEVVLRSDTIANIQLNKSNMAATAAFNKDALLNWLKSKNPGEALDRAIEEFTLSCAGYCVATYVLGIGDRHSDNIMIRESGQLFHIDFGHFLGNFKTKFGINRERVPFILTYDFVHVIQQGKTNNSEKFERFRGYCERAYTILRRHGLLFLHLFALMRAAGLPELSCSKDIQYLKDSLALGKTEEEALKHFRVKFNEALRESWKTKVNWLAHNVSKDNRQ
PI3K p110δ/p85α (human), sequence (P27986 whole entry partner): as the sequence (P27986 whole entry partner) above
PI3K p110β/p85α (human), sequence (P42338 whole entry, the tested form may be a part): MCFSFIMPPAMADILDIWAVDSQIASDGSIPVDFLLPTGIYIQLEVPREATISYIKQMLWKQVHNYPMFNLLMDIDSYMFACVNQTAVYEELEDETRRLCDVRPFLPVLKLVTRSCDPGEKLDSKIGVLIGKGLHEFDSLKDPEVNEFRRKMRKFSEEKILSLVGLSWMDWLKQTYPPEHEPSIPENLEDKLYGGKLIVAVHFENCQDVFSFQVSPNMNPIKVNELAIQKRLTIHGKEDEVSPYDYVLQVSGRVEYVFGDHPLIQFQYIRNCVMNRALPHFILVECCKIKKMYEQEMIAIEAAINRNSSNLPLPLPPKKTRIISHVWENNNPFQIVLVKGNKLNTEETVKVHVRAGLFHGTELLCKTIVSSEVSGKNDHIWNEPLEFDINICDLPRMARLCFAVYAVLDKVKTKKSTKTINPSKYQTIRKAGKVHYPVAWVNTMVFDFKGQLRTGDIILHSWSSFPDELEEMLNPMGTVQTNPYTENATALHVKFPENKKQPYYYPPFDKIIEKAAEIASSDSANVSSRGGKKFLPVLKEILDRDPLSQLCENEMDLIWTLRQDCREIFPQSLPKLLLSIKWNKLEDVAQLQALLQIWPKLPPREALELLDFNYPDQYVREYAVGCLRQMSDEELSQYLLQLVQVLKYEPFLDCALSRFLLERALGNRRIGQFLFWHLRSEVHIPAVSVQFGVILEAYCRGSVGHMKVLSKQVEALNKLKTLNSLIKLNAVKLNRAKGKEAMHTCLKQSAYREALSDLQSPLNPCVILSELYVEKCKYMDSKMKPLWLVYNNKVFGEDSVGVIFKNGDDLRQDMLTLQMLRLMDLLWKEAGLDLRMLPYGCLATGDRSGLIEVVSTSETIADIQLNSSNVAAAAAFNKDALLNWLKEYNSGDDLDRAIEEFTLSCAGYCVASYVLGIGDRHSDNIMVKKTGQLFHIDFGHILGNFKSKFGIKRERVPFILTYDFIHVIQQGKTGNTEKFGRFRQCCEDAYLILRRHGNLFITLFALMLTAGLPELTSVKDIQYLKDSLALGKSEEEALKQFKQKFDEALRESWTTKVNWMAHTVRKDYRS
PI3K p110β/p85α (human), sequence (P27986 whole entry partner, the tested form may be a part): as the sequence (P27986 whole entry partner) above

SMILES	IC50 [1]	IC50 ([1]; 10 μM ATP, substrate p53)	IC50 [2]	IC50 (mTOR (human))	IC50 (PI3K p110α/p85α (human))	IC50 (PI3K p110β/p85α (human))	IC50 (PI3K p110δ/p85α (human))	IC50 (PI3K (p120γ) (human))
COc1cc2ncc3c(c2cc1-c1cnn(C)c1)n(-c1cn(C)nc1C)c(=O)n3C [Compound Example 5, 1-(1,3-Dimethyl-1H-pyrazol-4-yl)-7-methoxy-3-methyl-8-(1-methyl-1H-pyrazol-4-yl)-1,3-dihydroimidazo[4,5-c]-quinolin-2-one]	< 0.001 µM	< 0.001 µM	< 0.2 µM	> 30 µM	> 30 µM	> 30 µM	> 30 µM	> 30 µM
COc1cc2ncc3c(c2cc1-c1cn[nH]c1)n(-c1ccncc1F)c(=O)n3C [Compound Example 9, 1-(3-Fluoropyridin-4-yl)-7-methoxy-3-methyl-8-(1H-pyrazol-4-yl)-1,3-dihydro-imidazo[4,5-c]quinolin-2-one]	< 0.001 µM	< 0.001 µM	< 0.2 µM	> 10 µM	> 30 µM	> 30 µM	> 30 µM	> 30 µM
CCn1cc(-c2cc3c(cc2OC)ncc2c3n(-c3ccncc3F)c(=O)n2C)cn1 [Compound Example 33, 8-(1-Ethyl-1H-pyrazol-4-yl)-1-(3-fluoropyridin-4-yl)-7-methoxy-3-methyl-1,3-dihydroimidazo[4,5-c] quinolin-2-one]	< 0.001 µM	< 0.001 µM	< 0.2 µM	> 30 µM	> 30 µM	> 30 µM	> 30 µM	> 30 µM
COc1cc2ncc3c(c2cc1-c1cn[nH]c1)n(-c1c(C)cncc1F)c(=O)n3C [Compound Example 8, 1-(3-Fluoro-5-methylpyridin-4-yl)-7-methoxy-3-methyl-8-(1H-pyrazol-4-yl)-1,3-dihydroimidazo[4,5-c] quinolin-2-one]	< 0.001 µM	< 0.001 µM	< 0.2 µM	> 5 µM	> 30 µM	> 30 µM	> 30 µM	> 30 µM
COc1cc2ncc3c(c2cc1-c1cnn(C)c1)n(-c1ncc(C)cc1F)c(=O)n3C [Compound Example 27, 1-(3-Fluoro-5-methylpyridin-2-yl)-7-methoxy-3-methyl-8-(1-methyl-1H-pyrazol-4-yl)-1,3-dihydroimidazo[4,5-c] quinolin-2-one]	< 0.001 µM	< 0.001 µM	< 0.2 µM	> 30 µM	> 30 µM	> 30 µM	> 30 µM	> 30 µM
COc1cc2ncc3c(c2cc1-c1cnn(C)c1)n(-c1ccncc1C)c(=O)n3C [Compound Example 40, 7-Methoxy-3-methyl-8-(1-methyl-1H-pyrazol-4-yl)-1-(3-methylpyridin-4-yl)-1,3-dihydroimidazo[4,5-c] quinolin-2-one]	< 0.01 µM	< 0.01 µM	0.2 to 1 µM	> 30 µM	> 30 µM	> 30 µM	> 30 µM	> 30 µM
CCn1cc(-c2cc3c(cc2OC)ncc2c3n(-c3ccncc3C)c(=O)n2C)cn1 [Compound Example 34, 8-(1-Ethyl-1H-pyrazol-4-yl)-7-methoxy-3-methyl-1-(3-methylpyridin-4-yl)-1,3-dihydroimidazo[4,5-c] quinolin-2-one]	< 0.01 µM	< 0.01 µM	< 0.2 µM	> 30 µM	> 30 µM	> 30 µM	> 30 µM	> 30 µM
COc1cc2ncc3c(c2cc1-c1cnn(C)c1)n(-c1ncc(F)cc1F)c(=O)n3C [Compound Example 1, 1-(3,5-Difluoropyridin-2-yl)-7-methoxy-3-methyl-8-(l-methyl-1H-pyrazol-4-yl)-1,3-dihydroimidazo[4,5-c] quinolin-2-one]	< 0.01 µM	< 0.01 µM	< 0.2 µM	> 30 µM	> 30 µM	> 30 µM	> 30 µM	> 30 µM
CCc1cncc(F)c1-n1c(=O)n(C)c2cnc3cc(OC)c(-c4cnn(CC)c4)cc3c21 [Compound Example 25, 1-(3-Ethyl-5-fluoropyridin-4-yl)-8-(1-ethyl-1H-pyrazol-4-yl)-7-methoxy-3-methyl-1,3-dihydroimidazo[4,5-c] quinolin-2-one]	< 0.001 µM	< 0.001 µM	< 0.2 µM	> 30 µM	> 30 µM	> 30 µM	> 30 µM	> 30 µM
COc1cc2ncc3c(c2cc1-c1cnn(C)c1)n(-c1c(F)cncc1C#N)c(=O)n3C [Compound Example 44, 5-Fluoro-4-[7-methoxy-3-methyl-8-(1-methyl-1H-pyrazol-4-yl)-2-oxo-2,3-dihydroimidazo[4,5-c]-quinolin-1-yl]nicotinonitrile]	< 0.01 µM	< 0.01 µM	0.2 to 1 µM	> 30 µM	> 30 µM	> 30 µM	> 30 µM	> 30 µM
COc1cc2ncc3c(c2cc1-c1cnn(C)c1)n(-c1ccncc1F)c(=O)n3C [Compound Example 35, 1-(3-Fluoropyridin-4-yl)-7-methoxy-3-methyl-8-(1-methyl-1H-pyrazol-4-yl)-1,3-dihydroimidazo[4,5-c] quinolin-2-one]	< 0.01 µM	< 0.01 µM	< 0.2 µM	> 30 µM	> 30 µM	> 30 µM	> 30 µM	> 30 µM

Reference: patent US10457677B2 (priority 2015, dated 2019)
